Measured values: US12648936B2 (NOVARTIS AG, priority 2019, dated 2026)

Tests used:
[1] = test system: pS6 (Ser240/244) in MEF TSC1−/− cells (mTORC1 signaling); assay: Cell-based assay for rapalog potency (pS6 in MEF TSC1-/- cells); set-up: species or system Mouse; settings: 2 hours treatment, average from multiple assays
FKBP12 = molecular target: T1, FKBP12 (Homo sapiens, UniProt P62942); assay: SPR assay, binding affinity to FKBP12; settings: single-cycle kinetics, immobilized avi-his6 FKBP12
T1 construct: made in house; host or cells: E. coli
Method: (§1) SPR assay to determine binding affinity to FK506-binding proteins (FKBP). […] Each protein was subsequently immobilized on a streptavidin chip in a Biacore 8K SPR instrument (GE Healthcare). Using single-cycle kinetics, compound titrations were flowed at 45 uL/min over each surface using 2-minute association and 30-minute dissociation phases in a buffer containing 50 mM Tris pH 7.5/150 mM NaCl/0.01% Tween 20/1 mM DTT/2% DMSO. The data were fit using low molecular weight (LMW) single-cycle kinetics. The equilibrium dissociation constants (KD) are reported. The equilibrium dissociation constants (KD) to FKBP12, FKBP51, and FKBP52 are listed in Table 2 for the compound of the disclosure.

FKBP52 = molecular target: T2, FKBP52 (Homo sapiens, UniProt Q02790); assay: SPR assay, binding affinity to FKBP52; settings: single-cycle kinetics, immobilized avi-his6 FKBP52
T2 construct: made in house; host or cells: E. coli
T2 sequence (Q02790 1-459): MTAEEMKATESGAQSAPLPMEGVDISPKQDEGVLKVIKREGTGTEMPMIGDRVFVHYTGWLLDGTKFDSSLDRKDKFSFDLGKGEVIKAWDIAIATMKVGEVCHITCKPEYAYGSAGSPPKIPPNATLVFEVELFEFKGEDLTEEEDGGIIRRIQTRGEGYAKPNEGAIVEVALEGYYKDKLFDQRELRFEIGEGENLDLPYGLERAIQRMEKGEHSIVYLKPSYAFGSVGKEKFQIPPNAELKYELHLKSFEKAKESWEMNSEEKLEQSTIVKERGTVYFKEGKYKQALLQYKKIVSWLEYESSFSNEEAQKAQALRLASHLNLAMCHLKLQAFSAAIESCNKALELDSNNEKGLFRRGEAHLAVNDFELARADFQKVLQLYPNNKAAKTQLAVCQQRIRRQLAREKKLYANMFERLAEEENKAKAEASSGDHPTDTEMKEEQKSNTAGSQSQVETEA
Method: as §1

FKBP51 = molecular target: T3, FKBP51 (Homo sapiens, UniProt Q13451); assay: SPR assay, binding affinity to FKBP51; settings: single-cycle kinetics, immobilized avi-his6 FKBP51
T3 construct: made in house; host or cells: E. coli
T3 sequence (Q13451 1-457): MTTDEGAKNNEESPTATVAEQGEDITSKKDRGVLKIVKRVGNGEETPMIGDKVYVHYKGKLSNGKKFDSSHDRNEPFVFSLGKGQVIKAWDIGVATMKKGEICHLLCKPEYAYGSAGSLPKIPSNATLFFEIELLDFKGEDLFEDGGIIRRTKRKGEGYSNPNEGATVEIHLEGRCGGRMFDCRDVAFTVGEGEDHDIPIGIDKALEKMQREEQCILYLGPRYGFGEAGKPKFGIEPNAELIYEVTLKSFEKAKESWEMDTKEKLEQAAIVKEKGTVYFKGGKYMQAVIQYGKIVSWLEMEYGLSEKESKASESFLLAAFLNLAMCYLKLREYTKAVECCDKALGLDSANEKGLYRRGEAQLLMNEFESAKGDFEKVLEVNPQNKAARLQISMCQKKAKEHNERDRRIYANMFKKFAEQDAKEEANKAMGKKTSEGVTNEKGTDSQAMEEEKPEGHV
Method: as §1

[2] = test system: S6K1(Thr389) phosphorylation (mTORC1 activity) in FKBP12 knock-out 293T cells; assay: pS6K1(Thr389) sandwich ELISA in FKBP12 knock-out 293T cells; assay type: cell-based; settings: 2 hours, dose range 1000 nM to 0.0033 nM, relative to DMSO media (FIG. 1B)
Method: Cells were treated in triplicate. The Y axis represents percent inhibition of pS6K1(Thr389) relative to the level in cells treated with rapalog free media (media plus DMSO).
Generation of FKPB12 knock-out 293T cells.
WT and FKBP12 knock-out 293T cells were plated at a density of 30,000 cells per well in poly-D-Lysine coated 96-well plates (Corning, #354461) in Dulbecco's modified Eagle's medium (ThermoFisher, #11995-065) supplemented with 10% fetal bovine serum (ThermoFisher, #16140-071). Cells were incubated at 37° C., 5% CO2 for 48 hours until they reached ˜80% confluence. […] Media supplemented with blank Dimethyl sulfoxide (DMSO) was used as a control for both compounds. Phosphorylated amounts of S6K1 (Thr389) were detected by a sandwich ELISA kit (Cell signaling, #7063C) following the manufacture's protocol.
S6K1 is a downstream target of mTORC1 and phosphorylation of its rapalog-sensitive Thr389 site is used as a functional readout of mTORC1 activity (Lee, C. H., Inoki, K. and Guan, K. L. (2007). mTOR pathway as a target in tissue hypertrophy. Annu. Rev. Pharmacol. Toxicol. 47, 443-467).

FKBP25 = molecular target: T4, FKBP25 (Homo sapiens, UniProt Q00688); assay: SPR assay, binding affinity to FKBP25; settings: single-cycle kinetics
T4 sequence (Q00688 1-224): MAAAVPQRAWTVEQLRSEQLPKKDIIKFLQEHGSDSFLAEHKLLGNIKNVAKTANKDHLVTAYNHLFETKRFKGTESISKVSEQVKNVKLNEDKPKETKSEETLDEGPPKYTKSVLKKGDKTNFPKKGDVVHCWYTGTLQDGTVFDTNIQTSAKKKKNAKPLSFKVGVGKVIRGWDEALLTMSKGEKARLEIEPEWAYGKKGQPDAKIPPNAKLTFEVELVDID
Method: as §1

FKBP12.6 = FKBP12.6 (Homo sapiens, UniProt P68106); assay: SPR assay, binding affinity to FKBP12.6; settings: single-cycle kinetics
Method: as §1

T1 sequence (P62942 whole entry): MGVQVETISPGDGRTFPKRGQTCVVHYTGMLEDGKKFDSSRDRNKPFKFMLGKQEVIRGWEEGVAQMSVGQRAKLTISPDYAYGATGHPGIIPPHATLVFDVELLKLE
Chain of FKBP12.6 (P68106 whole entry, species assumed): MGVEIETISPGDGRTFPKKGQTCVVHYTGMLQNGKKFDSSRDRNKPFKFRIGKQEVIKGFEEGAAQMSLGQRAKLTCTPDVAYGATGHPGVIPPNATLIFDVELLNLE

Row | SMILES | IC50 [1] [nM] | Kd (FKBP12) [nM] | Kd (FKBP52) [nM] | Kd (FKBP51) [nM] | Kd (FKBP25) [nM] | IC50 ([1]; Mus musculus, 2 h) [nM] | Kd (FKBP12.6) [nM] | inhibition of S6K1(Thr389) phosphorylation [2]
1 | CO[C@@H]1C[C@H](C[C@@H](C)[C@@H]2CC(=O)[C@H](C)/C=C(\C)[C@@H](O)[C@@H](OC)C(=O)[C@H](C)C[C@H](C)/C=C/C=C/C=C(\C)C(N3CCCS3(=O)=O)C[C@@H]3CC[C@@H](C)[C@@](O)(O3)C(=O)C(=O)N3CCCC[C@H]3C(=O)O2)CC[C@H]1OCCO (single isomer, unassigned) [Compound 2] | 22.5 | – | – | – | – | – | – | –
2 | CO[C@@H]1C[C@H](C[C@@H](C)[C@@H]2CC(=O)[C@H](C)/C=C(\C)[C@@H](O)[C@@H](OC)C(=O)[C@H](C)C[C@H](C)/C=C/C=C/C=C(\C)C(N3CCCS3(=O)=O)C[C@@H]3CC[C@@H](C)[C@@](O)(O3)C(=O)C(=O)N3CCCC[C@H]3C(=O)O2)CC[C@H]1O (stereo partly drawn) [Compound 1] | – | 6.4 | 3550 | 2040 | 28900 | 1.36 | 56 | no longer inhibited
3 | CO[C@H]1C[C@@H]2CC[C@@H](C)[C@@](O)(O2)C(=O)C(=O)N2CCCC[C@H]2C(=O)O[C@H]([C@H](C)C[C@@H]2CC[C@@H](OCCO)[C@H](OC)C2)CC(=O)[C@H](C)/C=C(\C)[C@@H](O)[C@@H](OC)C(=O)[C@H](C)C[C@H](C)/C=C/C=C/C=C/1C [RAD001, everolimus, reference compound] | – | 288 | 676 | 396 | 25 | 0.05 | 12 | ~50%
4 | CO[C@H]1C[C@@H]2CC[C@@H](C)[C@@](O)(O2)C(=O)C(=O)N2CCCC[C@H]2C(=O)O[C@H]([C@H](C)C[C@@H]2CC[C@@H](O)[C@H](OC)C2)CC(=O)[C@H](C)/C=C(\C)[C@@H](O)[C@@H](OC)C(=O)[C@H](C)C[C@H](C)/C=C/C=C/C=C/1C [Rapamycin, reference compound] | – | – | – | – | – | 0.05 | – | –

Now from value to molecule, other results behind:

Row | IC50 [1] [nM] | Kd (FKBP12) [nM] | Kd (FKBP52) [nM] | Kd (FKBP51) [nM] | Kd (FKBP25) [nM] | IC50 ([1]; Mus musculus, 2 h) [nM] | Kd (FKBP12.6) [nM] | SMILES | inhibition of S6K1(Thr389) phosphorylation [2]
5 | 8.3 | – | – | – | – | – | – | CO[C@@H]1C[C@H](C[C@@H](C)[C@@H]2CC(=O)[C@H](C)/C=C(\C)[C@@H](O)[C@@H](OC)C(=O)[C@H](C)C[C@H](C)/C=C/C=C/C=C(\C)C(N3CCCS3(=O)=O)C[C@@H]3CC[C@@H](C)[C@@](O)(O3)C(=O)C(=O)N3CCCC[C@H]3C(=O)O2)CC[C@H]1OCCO (single isomer, unassigned) [Compound 3] | –
6 | – | 10.9 | 2580 | 2580 | – | 3.4 | – | CO[C@@H]1C[C@H](C[C@@H](C)[C@@H]2CC(=O)[C@H](C)/C=C(\C)[C@@H](O)[C@@H](OC)C(=O)[C@H](C)C[C@H](C)/C=C/C=C/C=C(\C)C(N3CCCCS3(=O)=O)C[C@@H]3CC[C@@H](C)[C@@](O)(O3)C(=O)C(=O)N3CCCC[C@H]3C(=O)O2)CC[C@H]1O (stereo partly drawn) [Compound 4] | –
